ChEMBL document CHEMBL5055667, “Development of Novel VEGFR2 Inhibitors Originating from Natural Product Analogues with Antiangiogenic Impact” (J Med Chem, 2021)
Each block holds one compound with its values, some of them ahead of it. Calls of active or inactive are those of the source. No cut-off for these calls is given here.

How the values were obtained:
[1] = target: Vascular endothelial growth factor receptor 2 (Homo sapiens, UniProt P35968); experiment: Inhibition of VEGFR2 phosphorylation in VEGF-induced HUVEC cells pretreated measured after overnight incubation by immunoblotting analysis; assay type: cell-based
[2] = test system: Mus musculus; experiment: Toxicity in mouse assessed as change in body weight at 10 mg/kg, ip treated every other day for 20 days; assay type: organism-based; details: in vivo, 480 h, time 20 day
[3] = test system: U-87 MG; experiment: Antiproliferative activity against human U-87MG cells incubated for 72 hrs under serum treatment by MTT assay; assay type: functional, cell-based; details: U-87MG ATCC
[4] = test system: U-87 MG; experiment: Antitumor activity against human U-87MG cells xenografted in mouse assessed as reduction in tumor weight at 10 mg/kg, ip treated every other day for 20 days; assay type: functional, organism-based; details: U-87MG ATCC, time 20.0 day
[5] = test system: U-87 MG; experiment: Antiangiogenic activity against human U-87MG cells xenografted in mouse assessed as reduction in Bcl-xl expression at 10 mg/kg, ip treated every other day for 20 days by Western blotting analysis; assay type: functional, U-87MG ATCC; details: 480 h, time 20 day
[6] = test system: U-87 MG; experiment: Antiproliferative activity against human U87MG cells incubated for 72 hrs under VEGF treatment by MTT assay; assay type: functional, cell-based; details: U-87MG ATCC
[7] = test system: U-87 MG; experiment: Antiangiogenic activity against human U-87MG cells xenografted in mouse assessed as reduction in CD31 expression at 10 mg/kg, ip treated every other day for 20 days by Western blotting analysis; assay type: functional, U-87MG ATCC; details: 480 h, time 20 day
[8] = test system: HUVEC; experiment: Antiproliferative activity against HUVEC cells incubated for 72 hrs under VEGF treatment by MTT assay; assay type: functional, cell-based; details: Homo sapiens
[9] = test system: U-87 MG; experiment: Antitumor activity against human U-87MG cells xenografted in mouse assessed as reduction in tumor size at 10 mg/kg, ip treated every other day for 20 days; assay type: functional, organism-based; details: U-87MG ATCC, time 20.0 day
[10] = test system: U-87 MG; experiment: Antiangiogenic activity against human U-87MG cells xenografted in mouse assessed as reduction in HIF1alpha expression at 10 mg/kg, ip treated every other day for 20 days by fluorescence microscopy; assay type: functional, organism-based; details: U-87MG ATCC, time 20.0 day
[11] = test system: HUVEC; experiment: Antiproliferative activity against HUVEC cells incubated for 72 hrs under serum treatment by MTT assay; assay type: functional, cell-based; details: Homo sapiens
[12] = test system: U-87 MG; experiment: Antiangiogenic activity against human U-87MG cells xenografted in mouse assessed as reduction in vascular density at 10 mg/kg, ip treated every other day for 20 days by H& E staining analysis relative to control; assay type: functional, U-87MG ATCC; details: 480 h, time 20 day
[13] = test system: U-87 MG; experiment: Antiangiogenic activity against human U-87MG cells xenografted in mouse assessed as reduction in pVEGFR2 expression at 10 mg/kg, ip treated every other day for 20 days by Western blotting analysis; assay type: functional, U-87MG ATCC; details: 480 h, time 20 day

Vascular endothelial growth factor receptor 2, sequence (P35968 whole entry): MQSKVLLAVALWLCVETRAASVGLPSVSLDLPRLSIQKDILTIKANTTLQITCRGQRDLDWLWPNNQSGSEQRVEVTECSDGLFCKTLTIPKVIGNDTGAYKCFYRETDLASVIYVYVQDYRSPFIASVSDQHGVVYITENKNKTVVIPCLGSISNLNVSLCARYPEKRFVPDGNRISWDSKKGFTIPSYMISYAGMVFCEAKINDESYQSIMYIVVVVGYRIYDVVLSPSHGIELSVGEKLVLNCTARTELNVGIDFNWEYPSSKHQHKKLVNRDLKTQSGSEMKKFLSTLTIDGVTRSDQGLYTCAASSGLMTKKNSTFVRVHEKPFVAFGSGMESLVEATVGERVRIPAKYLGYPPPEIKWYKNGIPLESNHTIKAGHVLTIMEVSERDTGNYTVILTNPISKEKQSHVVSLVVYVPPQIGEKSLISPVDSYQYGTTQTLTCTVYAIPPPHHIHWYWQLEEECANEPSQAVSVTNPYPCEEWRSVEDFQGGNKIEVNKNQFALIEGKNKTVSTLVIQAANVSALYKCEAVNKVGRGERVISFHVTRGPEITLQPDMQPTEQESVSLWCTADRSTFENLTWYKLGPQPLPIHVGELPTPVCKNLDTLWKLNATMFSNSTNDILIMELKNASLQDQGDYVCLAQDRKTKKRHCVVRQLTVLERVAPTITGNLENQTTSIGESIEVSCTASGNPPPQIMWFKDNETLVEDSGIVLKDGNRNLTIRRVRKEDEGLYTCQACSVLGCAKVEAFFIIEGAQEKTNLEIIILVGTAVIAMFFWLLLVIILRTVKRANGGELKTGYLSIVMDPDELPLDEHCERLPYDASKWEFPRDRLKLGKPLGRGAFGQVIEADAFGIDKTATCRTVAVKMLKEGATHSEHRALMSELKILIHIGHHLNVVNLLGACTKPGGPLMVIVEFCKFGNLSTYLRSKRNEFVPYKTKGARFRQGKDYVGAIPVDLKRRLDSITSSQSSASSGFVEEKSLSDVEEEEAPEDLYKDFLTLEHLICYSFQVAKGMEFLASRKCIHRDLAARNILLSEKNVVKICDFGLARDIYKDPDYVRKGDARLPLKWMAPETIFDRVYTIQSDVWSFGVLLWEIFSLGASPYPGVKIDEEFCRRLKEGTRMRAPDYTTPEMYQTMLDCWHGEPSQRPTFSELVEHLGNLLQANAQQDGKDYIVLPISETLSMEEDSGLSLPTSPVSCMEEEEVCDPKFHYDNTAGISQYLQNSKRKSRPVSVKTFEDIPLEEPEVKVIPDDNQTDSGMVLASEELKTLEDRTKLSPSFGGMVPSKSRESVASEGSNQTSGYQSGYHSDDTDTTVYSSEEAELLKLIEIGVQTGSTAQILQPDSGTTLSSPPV

IC50 [1]: > 20 µM
Structure (SMILES): COc1ccc2[nH]c3c(c2c1)CN(C(=O)CC(C)C)CCC3

IC50 [1]: > 20 µM
Structure (SMILES): COc1ccc2[nH]c3c(c2c1)CN(C(=O)Cc1ccncc1)CCC3

IC50 [1]: > 20 µM
Structure (SMILES): COc1ccc2[nH]c3c(c2c1)CNCCC3

Structure (SMILES): COc1ccc2[nH]c3c(c2c1)CN(C(=O)Cc1ccccn1)CCC3
Activity [2]: Non-Toxic
Activity [3]: inactive
Activity [4]: Active
inhibition in vivo at 10 mg/kg [5]: 20%
Activity [6]: Active
inhibition in vivo at 10 mg/kg [7]: 60%
Activity [8]: Active
Activity [9]: Active
Activity [10]: Active
Activity [11]: inactive
inhibition in vivo at 10 mg/kg [12]: 73%
inhibition in vivo at 10 mg/kg [13]: 60%

IC50 [1]: > 20 µM
Structure (SMILES): COc1ccc2[nH]c3c(c2c1)CN(C(=O)CN1CCOCC1)CCC3

IC50 [1]: > 20 µM
Structure (SMILES): COc1ccc2[nH]c3c(c2c1)CN(C(=O)Cc1ccccc1)CCC3
